PMC9225715, “Development of PD3 and PD3-B for PDEδ inhibition to modulate KRAS activity” (Journal of Enzyme Inhibition and Medicinal Chemistry, 2022)

Columns and labels:
PDEδ [1] = molecular target: T1, PDEδ (Homo sapiens, UniProt O43924); test: FP-based competition binding assay using excess deltarasin
T1 construct: made in house; host or cells: E. coli BL21(DE3)
Method: Figure 3. Binding affinities of PDs measured by fluorescence polarisation. (A) Representative binding curve of PDs (PD3) titrated with PDEδ. The FP value was measured in PBS buffer (pH 7.2) containing 8 concentrations (0, 0.5, 1, 2, 4, 8, 16 and 32 μM) of PDEδ mixed with 0.5 μM PDs. Ex: 440 nm, Em: 526 nm; (B) Kd value and half-life of each compound; (C, D) Kinetic trace of PD3 and PD7 in the competition assay. PD3 was shown as a compound with the longest retention time (slow dissociation), whereas PD7 was shown as a compound with the shortest retention time (fast dissociation). The half-life was obtained by a competition binding assay using excess deltarasin. The optimal concentration of PDEδ for the competition assay was determined using the Kd value and PD concentration (0.5 μM) for making more than 68% of the binding complex. Ex: 430 nm, Em: 520 nm. TEXT PRINTED IN THE PICTURE: (A) PD3: Best-fit values Bmax: 261.7; Best-fit values Kd: 0.4991; Std. Error Bmax: 17.98; Std. […] Error Bmax 17.98 (last digit 8 or 6) and Std. Error Kd 0.1956 (5 and 6 not certain) / Panels C and D: k and half-life are printed without a label of their own; assigned to PD3 and PD7 from the panel legends (PDEδ+PD3+Del, PDEδ+PD7+Del)
To confirm that the PD compound occupies the same farnesylation binding site as deltarasin in PDEδ and to exclude the possibility that the FP signal resulted from non-specific hydrophobic interactions, we carried out a FP-based competition assay. PDs (0.5 µM) were incubated with the purified PDEδ protein for 2 h to ensure complete binding between the compound and the protein. Then, deltarasin was added to replace the PD compound in the prenyl binding pocket of PDEδ, which decreased the FP due to the free rotation of the released PD compound. As shown in Figure 3(B), the reverse correlation between Kd values and half-lives was observed (Figure 3(B) and Table 1). […] The rate constants and half-lives were measured only when the increased concentration of deltarasin produced concentration-independent kinetic parameters, which reflects complete displacement of the binding site with the deltarasin. The kinetic trace was fit to a single exponential decay to generate the dissociation rate constant and half-life. Given that the Kd value is a ratio of koff/kon in a simple bimolecular binding model, the measured half-life and Kd are not always matched due to the contribution from the association rate constant. Figure 3(C) (PD3) and 3 D (PD7) show a representative kinetic trace obtained in the competition assay.
Deltarasin, a well-known PDEδ inhibitor, was purchased from Chemietek (Indianapolis, IN) for the competition assay. Assay buffer and the plate were the same as used in fluorescence polarisation assay. The optimal concentration of PDEδ was determined based on the Kd values and ligand concentration (0.5 µM) to ensure the formation of ligand-protein complex. The mixture of PDEδ and compounds were incubated for 2 h at 4 °C. After adding deltarasin to the mixture, FP was immediately recorded by SpectraMax M5 microplate reader (Molecular Devices, San Jose, CA) with excitation at 430 nm and emission at 520 nm. In SpectraMax M5 microplate reader, single excitation and emission wavelengths need to be used for testing all compounds. Therefore, Ex 430/Em 520 was used for competition binding assay. The selected ex/em wavelengths have only a difference of less than 10 nm from the maximum wavelengths, and there was no critical issue for conducting assay. The kinetic trace was fit to a single exponential decay to generate dissociation rate constant and half-life.

PDEδ [2] = molecular target: T1, PDEδ; test: Fluorescence measurement after incubation with recombinant PDEδ; assay type: binding; settings: 2 µM PD + 2 µM PDEδ, 20 mM Tris buffer pH 7.5, Ex 280 nm
Method: With the structural rationale for the binding to PDEδ from the molecular docking studies, we measured the fluorescence responses of the PDs after incubation with recombinant PDEδ proteins to confirm the binding of PDs to PDEδ. We envisioned that the hydrophobic environment of the prenyl binding pocket of PDEδ, as depicted in Figure 1(C), could enhance the fluorescent signal due to the solvatochromic characteristics of IQ scaffold. In addition, tryptophan residues near the binding site of PDEδ and the fluorophore of PDs could act as a fluorescence resonance energy transfer (FRET) pair. […] All recoded spectra of PDs are depicted in Supplemental Figure S1. To compare the binding abilities of PD derivatives to the target protein, same concentration (2 µM) of PD compound was treated and then fluorescence intensity was measured in Spectrofluorometer FP-6500.
The fluorescence changes were measured to determine the interaction between PD compounds and PDEδ protein. The fluorescence spectra were obtained under Tris buffer [20 mM Tris-HCl (pH 7.5), 100 mM NaCl] at 20 °C. The concentration of PDEδ was 2 µM. After the addition of 2 µM PD compound, the mixture was gently inverted 3 times and then incubated for 1 min. The emission spectra were recorded on Spectrofluorometer FP-6500 (JASCO, Tokyo, Japan) at Ex 280 nm. The band width was 3 nm for excitation and 5 nm for emission.

PDEδ [3] = molecular target: T1, PDEδ; test: Native gel electrophoresis with in-gel fluorescence (target specificity); assay type: binding; settings: 5 or 50 µM PD3, PDEδ-overexpressing bacterial lysate or purified PDEδ, 12% native gel
Method: We also conducted native gel electrophoresis to further verify the specific binding of PD3 to native PDEδ using in-gel fluorescence scanning. […] We assumed that PD3 bound within the tertiary structure would be identified on the native gel. PD3 was incubated with bacterial lysate containing the overexpressed PDEδ protein (Figure 4(C,D), lanes 1–3) or purified PDEδ (Figure 4(C,D), lanes 4–6), and then these samples were run in a native gel to avoid denaturation of the protein. The in-gel fluorescence shown in Figure 4(C) (Ex: 312 nm, Em: 585–625 nm) was compared to the same gel stained with Coomassie that visualised the protein bands (Figure 4(D)), which confirmed the formation of the PD3-target protein complex. As expected, the fluorescence band was detected at the location of PDEδ and only detected in the lane with PD3 (lanes 2, 3, 5, and 6).
PD3 (5 or 50 µM) was added to the bacterial lysate (390 µM) or purified PDEδ protein (22.9 µM) and the mixture was incubated for 2 h at 4 °C. The samples were loaded on each lane and separated by 12% native PAGE in a running buffer [25 mM Tris-HCl (pH 8.0), 500 mM NaCl, 10 mM imidazole, 10% Glycerol] with 1/4 pellet of protease inhibitor (Roche, Penzberg, Upper Bavaria, Germany). The gels were run at 70 V for 2.5 h, followed by in-gel fluorescence measurement. The same gel was stained by Coomassie brilliant blue to visualise protein bands.

## Cc1ccc(-c2nc3ccccc3c3cc4ccccn4c23)cc1 [PD3, 6-(p-tolyl)indolizino[3,2-c]quinoline]
PDEδ [1]; representative kinetic trace, single exponential decay
  Half-life: 45 min
PDEδ [1]; representative kinetic trace, single exponential decay, read-out: dissociation rate constant k (converted)
  koff: 0.00025 s⁻¹
PDEδ [1]; retention in PDEδ on displacement by excess deltarasin, 0.5 µM PD, mean ± SD of three independent experiments
  Half-life: 41 ± 6 min
PDEδ [2]
  Fluorescence response upon incubation with PDEδ: exceeded the maximum detection limit of Spectrofluorometer
PDEδ [3]
  Binding specificity to PDEδ by in-gel fluorescence: specifically binds to PDEδ in bacterial lysates
